Measurements: patent publication US20260345729A1, “TISSUE DIFFERENTIATION FACTOR RELATED POLYPEPTIDES (TDFRPS) FOR THE TREATMENT OF MYOCARDIAL INJURY” (Therapeutics By Design, LLC, priority 2022, published 2026)
Values joined by “and” are separate entries in the source; they are usually repeats but may differ in a detail not shown here. Identical values can stand only once. “Also recorded” adds a separate entry of the source.

How the values were obtained:
[1] = tested on: phosphorylation of AKT, cardiomyocytes; assay: Phosphorylated AKT in doxorubicin-treated cardiomyocytes; format: cell-based, rat; conditions: FIG. 2
Text: (§1) The examples described herein valuated the effect of TDFRP's on the physiology of cardiomyocytes in vitro. Phosphorylation of cellular AKT at Ser473 is known to promote cardiomyocyte survival, function, and contractility. Cellular enzyme Caspase-3 is responsible for apoptosis via both apoptosis pathways. Chemotherapeutic agent doxorubicin […] used to treat a diverse number of cancers, but one significant side effect is decreased heart function. In cardiomyocytes, doxorubicin hinders the phosphorylation of AKT and stimulates Caspase-3. Lipopolysaccharides (LPS) are endotoxins that promote inflammation and apoptosis in cardiomyocytes.
(§2) Neonatal rat cardiomyocytes (CM) were pre-treated with 0.33 μM doxorubicin for 24 h, followed by treatment with BMP-7 (143 nM) or THR-123 (SEQ ID NO: 1) at 100 and 500 μM for 60 h.

[2] = tested on: Caspase-3, cardiomyocytes; assay: Doxorubicin-induced Caspase-3 activity in cardiomyocytes; format: cell-based, rat; conditions: for caspase-3 activity (effect of doxorubicin itself): 333 μM (legend) / 0.33 μM (example) doxorubicin, cardiomyocytes, FIG. 3; for doxorubicin induced Caspase-3 activity: doxorubicin 0.33 μM 24 h (FIG. 3 legend: 333 μM), then BMP-7 143 nM or THR-123 100 and 500 μM for 60 h, p<0.05
Procedure: as §2
Neonatal rat cardiomyocytes (CM) were pre-treated with 0.33 μM doxorubicin for 24 h, followed by treatment with BMP-7 (143 nM) or SEQ ID No. 1 at 100 and 500 μM for 60 h. […] Caspase-3 activation is a step common to both apoptotic pathways and leads to apoptosis.

[3] = tested on: Akt phosphorylation at Serine 473, neonatal rat cardiomyocytes; assay: Akt phosphorylation (Ser473) in cardiomyocytes starved by serum withdrawal (ischemic injury); format: cell-based; conditions: serum/growth supplement withdrawal; THR-123 100 μM, 60 h; p<0.01; FIG. 1
Text: Phosphorylated Akt is a marker of apoptosis. Ischemic injury leads to apoptosis.
as §1
Primary neonatal rat cardiomyocytes (Cell Applications) were cultured in medium with 10% growth supplement (Cell Applications) for 24 hours at 37 °C, 5% CO2. Cells were then starved of growth supplement for 12 hours to create ischemic injury. Controls received medium alone. Cells were incubated with culture medium alone, BMP-7 (143 nM) or SEQ ID No. 1 (100 μM) for 60 h. In FIG. 1, Akt phosphorylation at Serine 473 (Cell Signaling Technology) is depressed due to media starvation and was not affected by the addition of PBS.

[4] = tested on: paracardial inflammation in rat hearts after LAD ligation; assay: Paracardial inflammation / pericarditis inflammation level in rat LAD ligation model; format: in vivo; conditions: i.v.; BMP-7 160 μg/kg; THR-123 10 mg/kg; day 7 post ligation; FIG. 9
Procedure: Myocardial ischemia was created by ligating the left anterior descending artery (LAD), which supplies blood to the left ventricle of the heart. In the LAD infarct model the chest and the pericardium are opened to expose the LAD. A suture is placed around the LAD and loops are added to the two ends, then the suture is tightened with an over hand knot (ligation). The ligation blockage to the LAD was maintained for 20 min to simulate a coronary infarct, then released using the two loops.
The animals were divided into three groups that were dosed with PBS, BMP-7, or THR-123 (SEQ ID NO: 1). Administrations were at 2 hr prior to ligation and at 24, 72 and 120 hr post ligation.
Twenty-four unmanipulated rats, sorted into three large groups by initial body weight (>300 g pre-surgery) were evaluated. Animals underwent surgery and were sorted into 3 treatment groups: Group 1: Vehicle (neg. control), PBS, equal volume i.v; Group 2: BMP-7, 160 μg/kg i.v.<5 ml/kg; Group 3: THR-123 (SEQ ID NO: 1), 10 mg/kg i.v.<5 ml/kg. The LAD was ligated to create a 20 min period of ischemia, then released for seven days during which reperfusion injury occurs (IR injury).
The predominance of the hearts from the PBS treated group had more severe inflammation than hearts from the BMP-7 treated and the THR-123 (SEQ ID NO: 1) treated groups (FIG. 9).

[5] = tested on: Caspase-3, cardiomyocytes; assay: LPS-induced Caspase-3 in cardiomyocytes; format: cell-based, human; conditions: 100 ng/ml LPS; BMP-7 143 nM; THR-123 4, 20, 100, 500 μM (legend: 20 μM or higher); FIG. 4
IL-6, cardiomyocytes = assay: LPS-induced IL-6 release in cardiomyocytes; format: cell-based, human; conditions: 100 ng/ml LPS; BMP-7 143 nM; THR-123 4, 20, 100, 500 μM; FIG. 5
[6] = tested on: myocardial ischemia in the rat after ligation of the left anterior descending artery; assay: Rat LAD ligation model: histomorphometric necrotic volume / volume at risk (ischemia/reperfusion injury); format: in vivo; conditions: i.v. 2 hr prior and 24, 72, 120 hr post ligation, 20 min ischemia, 7 days reperfusion, BMP-7 160 μg/kg (p=0.08), THR-123 10 mg/kg (p=0.007), FIG. 8
Procedure: For each slice of a heart, the area of the necrotic area and the area of the whole area at risk (not stained blue) are measured. The areas are summed over all slices to obtain an estimate of the necrotic volume (NV) and the volume at risk (VR). The ratio of NV/VR is a measure of the myocardial injury resulting from the period of ischemia and subsequent reperfusion injury.
The efficacy of BMP mimetic THR-123 in ameliorating the effects of myocardial ischemia was investigated in the rat after ligation of the coronary artery. The rat LAD model is used for studying the effect of treatments for ameliorating the effect of a heart attack (coronary infarct). The Left Anterior Descending artery (LAD) supplies blood to the left ventricle. Blocking blood flow through the LAD creates ischemia in a region of the left ventricle muscle (region at risk). […]
Twenty-four unmanipulated rats, sorted into three large groups by initial body weight (>300 g pre-surgery) were evaluated. […]
The effect of the LAD ligation was measured via histomorphometric analysis of heart slices where the necrotic areas (yellow) and the areas impacted by the LAD ligation (area at risk, i.e., not stained blue) were measured for each slice and summed over all slices to obtain a measure of the infarct volume and the volume at risk (FIG. 7). […]

| caspase-3 activity (effect of doxorubicin itself) [2] | caspase-3 activity (effect of doxorubicin itself) ([2]; listed as Doxorubicin) | Molecule | phosphorylation of AKT (effect of doxorubicin itself) ([1]; 333 nM doxorubicin, serum starved cardiomyocytes) | Akt Ser473 phosphorylation [3] | Akt phosphorylation compared to doxorubicin alone ([1]; 0.33 μM (333 nM) doxorubicin 24 h, then THR-123 at 100 and 500 μM for 60 h, p<0.01) | paracardial inflammation relative to PBS [4] | doxorubicin induced Caspase-3 activity [2] | LPS induced Caspase-3 [5] | LPS induced IL-6 (IL-6, cardiomyocytes) | reduction in myocardial injury / IR damage relative to PBS (necrotic volume / volume at risk) ([6]; 10 mg/kg) | reduction in myocardial injury / IR damage relative to PBS (necrotic volume / volume at risk) [6] [%] |
| --- | --- | --- | --- | --- | --- | --- | --- | --- | --- | --- | --- |
| stimulated caspase-3 activity | Stimulated Caspase-3 | COc1cccc2c1C(=O)c1c(O)c3c(c(O)c1C2=O)C[C@@](O)(C(=O)CO)C[C@@H]3O[C@H]1C[C@H](N)[C@H](O)[C@H](C)O1 [doxorubicin, reference compound] | further reduces phosphorylation of AKT | – | – | – | – | – | – | – | – |
| – | – | THR-123: TDFRP peptide, BMP mimetic: (H) CYFDDSSNVLCKKYRS (OH) | – | significantly increased Akt Ser473 phosphorylation; also recorded: reversed the effects of ischemia on AKT phosphorylation | significantly increased cellular Akt phosphorylation; also recorded: reversed the inhibition of AKT phosphorylation in a dose dependent manner | reduced paracardial inflammation relative to PBS | inhibited doxorubicin induced Caspase-3 activity in a dose dependent manner; also recorded: significantly inhibited doxorubicin induced Caspase-3 activity; also recorded: completely reversed the apoptotic effects of doxorubicin | reduced the level of LPS induced Caspase-3 in a concentration dependent manner; also recorded: reversed caspase-3 activity to an even greater extent | reduces the level of LPS induced IL-6 in a concentration dependent manner; also recorded: reduced the level of IL-6 release as did THR-123 in a dose dependent manner | 85% and 84% | – |
| – | – | BMP-7: bone morphogenetic proteins (BMPs) (protein, UniProt P18075 293-431, looked up) Bone morphogenetic protein 7: STGSKQRSQNRSKTPKNQEALRMANVAENSSSDQRQACKKHELYVSFRDLGWQDWIIAPEGYAAYYCEGECAFPLNSYMNATNHAIVQTLVHFINPETVPKPCCAPTQLNAISVLYFDDSSNVILKKYRNMVVRACGCH | – | – | – | reduced paracardial inflammation relative to PBS | significantly inhibited doxorubicin induced Caspase-3 activity; also recorded: completely reversed the apoptotic effects of doxorubicin | reduced the level of LPS induced Caspase-3 in a concentration dependent manner; also recorded: somewhat reversed the effect of LPS | reduces the level of LPS induced IL-6 in a concentration dependent manner; also recorded: reduced the level of IL-6 release | – | 51 |
